Assay results published in patent US4882349A, “Pyrrolacetic amides having antiinflammatory activity” (priority 1982, dated 1989).

What was measured:
[1] = tested on: carrageenin-induced oedema; test: carrageenin-induced oedema test (anti-inflammatory activity); format: in vivo, albino male Wistar rats
Method: This effect was evaluated by means of an experimental model reproducing acute inflammation: for this purpose the carrageenin- induced oedema test was employed following the method described by C.
Albino male Wistar rats weighing 140-160 g were caged for 10 days at 22±1° C. and given a balanced diet and water ad libitum. Eighteen hours before the experiment the animals were randomized into groups of ten and fasted but with free access to water. Each dose was tested in three groups of rats. Each compound was given either orally, by gavage, or parenterally--intraperitoneal injection--administering as follows:
controls: 0.5% carboxymethylcellulose suspension in physiological saline, 10 ml/kg
treated: suspension of the compounds to be tested in the same vehicle and at the same volume (10 ml/kg) used for the controls at the doses specified below.
One hour after administration of the compounds and vehicle, in order to provoke the oedema for determining the protective effect of the substances under examination, each rat received, by subcutaneous injection into the plantar surface of the left paw, 0.1 ml of 1% sterile carrageenin suspension.

[2] = tested on: phenyl-p-quinone-induced writhing (abdominal contractions); test: phenylquinone-induced writhing test (analgesic activity), compound given 30 min before phenyl-p-quinone; format: in vivo, male Wistar rats
Method: Male Wistar rats weighing 110±5 g were caged for 10 days at 22±1° C. and given a balanced diet with free access to water. Twenty-four hours before the experiment the animals were randomized into groups of 10 and fasted for 14 hours but with free access to water. Each dose was tested in 3 groups of rats. Thirty minutes following administration either orally or parenterally of the products to be tested and the vehicle alone (0.5% carboxymethyl-cellulose in physiological saline) in the control animals, each rat was given 2 ml of a 5% absolute ethanol aqueous solution containing 0.36% of phenyl-p-quinone (Sigma Chemical Company) in order to provoke writhings. Fifteen minutes after administration of phenyl-p-quinone the number of contractions were counted for 20 minutes. The inhibiting effect of the compounds under examination on the abdominal contractions induced by phenyl-p-quinone was calculated by the following formula: % protection= [formula]
Table V lists the tested compounds, doses, routes of administration and their efficacy expressed as percentage of protection, taking into account that phenyl-p-quinone was administered thirty minutes after the compounds.

[3] = tested on: mucus secreted by the respiratory airway; test: antisecretory activity, respiratory mucus secretion; format: in vivo, albino male New Zealand rabbits; settings: vs control group
Method: The experiment was carried out in accordance with the method described by Y. Kase (Folia Pharmacol. Jap. 73: 605, 1977) for the purpose of investigating whether or not the compounds under examination determine changes in the volume of the mucus secreted by the respiratory airway. Groups of four albino male New Zealand rabbits (mean weight: 2.5 kg) were used for testing each dose per single group. The animals were anesthetized with urethane (1.1 g/ks b.w.) via the intraperitoneal route and a Y cannula was inserted into the trachea. In order to stimulate mucous secretion a humidifier was connected to the cannula permitting the animals to spontaneously breathe air with 100% humidity at a constant temperature of 39° C. The secreted mucus was collected through another opening in the cannula and measured at three and six hours after administration of the compounds under examination or of the vehicle alone administered in the order of […] (controls). Calculation of the increase or decrease in mucous secretion was based upon the percentage differences between the groups treated with the compounds under examination and the control group. Table VII gives the percentage differences in mucous secretion, and the tested compounds with relative doses and routes of administration.

[4] = tested on: cough provoked by mechanical stimulation of the tracheal bifurcation mucosa; test: antitussive activity, mechanically provoked coughing; format: in vivo, albino Guinea-pigs; settings: 1 h after administration
Method: The antitussive effect on albino Guinea-pigs weighing 300 g was evaluated using the method described by Y. Kase (Selected Pharmacological Testing Methods, p.363, Marcel Dekker Inc., New York, 1968). Each dose was tested in a group of animals with a Y cannula inserted into the trachea. In order to provoke coughing, the mucosa of the tracheal bifurcation was mechanically stimulated by insertion of a wild boar's hair through an opening in the cannula, while the other opening was connected to a kymograph to plot the amplitude and/or frequency. The reduction in the number of coughs was evaluated at one hour after administration of the compounds under examination by following the plottings for twenty minutes and comparing the response of the control animals.

in vivo = settings: rat
[5] = 50 mg/Kg, Table IV (route not given), 2 h
[6] = 50 mg/Kg, Table IV (route not given), 4 h
[7] = 50 mg/Kg, Table IV (route not given), 6 h
[8] = 50 mg/Kg, Table IV (route not given), 24 h
[9] = 50 mg/Kg, Table IV (route not given), 48 h
[10] = 50 mg/Kg, Table IV (route not given), 72 h
[11] = 100 mg/Kg, Table IV (route not given), 2 h
[12] = 100 mg/Kg, Table IV (route not given), 4 h
[13] = 100 mg/Kg, Table IV (route not given), 6 h
[14] = 100 mg/Kg, Table IV (route not given), 24 h
[15] = 100 mg/Kg, Table IV (route not given), 48 h
[16] = 100 mg/Kg, Table IV (route not given), 72 h

## Cc1ccc(C(=O)c2ccc(CC(=O)NCC(=O)O)n2C)cc1 [Compound 1-c, 1-methyl-5-p-toluoylpyrrole-2-acetamidoacetic acid]
[1]; 25 mg/Kg per os, 2 h
  oedema % inhibition: 38,6%
[1]; 25 mg/Kg per os, 4 h
  oedema % inhibition: 39,1%
[1]; 25 mg/Kg per os, 6 h
  oedema % inhibition: 37.2%
[1]; 25 mg/Kg per os, 24 h
  oedema % inhibition: 12.1%
[1]; 25 mg/Kg per os, 48 h
  oedema % inhibition: 0.0%
[1]; 25 mg/Kg per os, 72 h
  oedema % inhibition: 0.0%
[1]; 25 mg/Kg, Table IV (route not given), 2 h
  oedema % inhibition: 40.0%
[1]; 25 mg/Kg, Table IV (route not given), 4 h
  oedema % inhibition: 44.8%
[1]; 25 mg/Kg, Table IV (route not given), 6 h
  oedema % inhibition: 45.0%
[1]; 25 mg/Kg, Table IV (route not given), 24 h
  oedema % inhibition: 9.0%
[1]; 25 mg/Kg, Table IV (route not given), 48 h
  oedema % inhibition: 0.0%
[1]; 25 mg/Kg, Table IV (route not given), 72 h
  oedema % inhibition: 0.0%
[1]; 50 mg/Kg per os, 2 h
  oedema % inhibition: 51.8%
[1]; 50 mg/Kg per os, 4 h
  oedema % inhibition: 58.9%
[1]; 50 mg/Kg per os, 6 h
  oedema % inhibition: 60.4%
[1]; 50 mg/Kg per os, 24 h
  oedema % inhibition: 18.7%
[1]; 50 mg/Kg per os, 48 h
  oedema % inhibition: 0.0%
[1]; 50 mg/Kg per os, 72 h
  oedema % inhibition: 0.0%
[1]; [5]
  oedema % inhibition: 55.0%
[1]; [6]
  oedema % inhibition: 64.0%
[1]; [7]
  oedema % inhibition: 65.4%
[1]; [8]
  oedema % inhibition: 20.0%
[1]; [9]
  oedema % inhibition: 8.0%
[1]; [10]
  oedema % inhibition: 0.0%
[1]; 100 mg/Kg per os, 2 h
  oedema % inhibition: 69.0%
[1]; 100 mg/Kg per os, 4 h
  oedema % inhibition: 70.1%
[1]; 100 mg/Kg per os, 6 h
  oedema % inhibition: 67.0%
[1]; 100 mg/Kg per os, 24 h
  oedema % inhibition: 26.0%
[1]; 100 mg/Kg per os, 48 h
  oedema % inhibition: 10.0%
[1]; 100 mg/Kg per os, 72 h
  oedema % inhibition: 0.0%
[1]; [11]
  oedema % inhibition: 74.8%
[1]; [12]
  oedema % inhibition: 77.5%
[1]; [13]
  oedema % inhibition: 74.0%
[1]; [14]
  oedema % inhibition: 30.4%
[1]; [15]
  oedema % inhibition: 12.0%
[1]; [16]
  oedema % inhibition: 0.0%
[2]; 5 mg/Kg i.p.
  % Protection: 27.1%
[2]; 5 mg/Kg per os
  % Protection: 25.3%
[2]; 10 mg/Kg i.p.
  % Protection: 46.3%
[2]; 10 mg/Kg per os
  % Protection: 49.0%
[2]; 20 mg/Kg i.p.
  % Protection: 82.0%
[2]; 20 mg/Kg per os
  % Protection: 85.1%
[3]; 50 mg/Kg i.p., 3 h
  % difference in mucus secretion: 0.0%
[3]; 50 mg/Kg i.p., 6 h
  % difference in mucus secretion: 0.0%
[3]; 50 mg/Kg per os, 3 h
  % difference in mucus secretion: 0.0%
[3]; 50 mg/Kg per os, 6 h
  % difference in mucus secretion: +6%
[3]; 75 mg/Kg i.p., 3 h
  % difference in mucus secretion: -12%
[3]; 75 mg/Kg i.p., 6 h
  % difference in mucus secretion: -7%
[3]; 75 mg/Kg per os, 3 h
  % difference in mucus secretion: -10%
[3]; 75 mg/Kg per os, 6 h
  % difference in mucus secretion: -8%
[3]; 100 mg/Kg i.p., 3 h
  % difference in mucus secretion: -37%
[3]; 100 mg/Kg i.p., 6 h
  % difference in mucus secretion: -25%
[3]; 100 mg/Kg per os, 3 h
  % difference in mucus secretion: -35%
[3]; 100 mg/Kg per os, 6 h
  % difference in mucus secretion: -22%
[4]; 50 mg/Kg i.p.
  % inhibition, cough amplitude: 10%
  % inhibition, cough frequency: 25%
[4]; 50 mg/Kg per os
  % inhibition, cough amplitude: 12%
  % inhibition, cough frequency: 20%
[4]; 75 mg/Kg i.p.
  % inhibition, cough amplitude: 15%
  % inhibition, cough frequency: 27%
[4]; 75 mg/Kg per os
  % inhibition, cough amplitude: 20%
  % inhibition, cough frequency: 22%
[4]; 100 mg/Kg i.p.
  % inhibition, cough amplitude: 40%
  % inhibition, cough frequency: 51%
[4]; 100 mg/Kg per os
  % inhibition, cough amplitude: 38%
  % inhibition, cough frequency: 45%
In vivo; ip
  LD50: 780 mg/kg
In vivo; po
  LD50: 1300 mg/kg

## Cc1ccc(C(=O)c2ccc(CC(=O)O)n2C)cc1 [Tolmetin Na.2H2 O, 1-methyl-5-p-toluoylpyrrole-2-acetic acid, reference compound]
[1]; 10 mg/Kg per os, 2 h
  oedema % inhibition: 44.8%
[1]; 10 mg/Kg per os, 4 h
  oedema % inhibition: 29.2%
[1]; 10 mg/Kg per os, 6 h
  oedema % inhibition: 10.2%
[1]; 10 mg/Kg per os, 24 h
  oedema % inhibition: 0.0%
[1]; 10 mg/Kg per os, 48 h
  oedema % inhibition: 0.0%
[1]; 10 mg/Kg per os, 72 h
  oedema % inhibition: 0.0%
[1]; 10 mg/Kg, Table IV (route not given), 2 h
  oedema % inhibition: 46.0%
[1]; 10 mg/Kg, Table IV (route not given), 4 h
  oedema % inhibition: 39.1%
[1]; 10 mg/Kg, Table IV (route not given), 6 h
  oedema % inhibition: 20.0%
[1]; 10 mg/Kg, Table IV (route not given), 24 h
  oedema % inhibition: 0.0%
[1]; 10 mg/Kg, Table IV (route not given), 48 h
  oedema % inhibition: 0.0%
[1]; 10 mg/Kg, Table IV (route not given), 72 h
  oedema % inhibition: 0.0%
[1]; 50 mg/Kg per os, 2 h
  oedema % inhibition: 48.0%
[1]; 50 mg/Kg per os, 4 h
  oedema % inhibition: 55.3%
[1]; 50 mg/Kg per os, 6 h
  oedema % inhibition: 55.2%
[1]; 50 mg/Kg per os, 24 h
  oedema % inhibition: 0.0%
[1]; 50 mg/Kg per os, 48 h
  oedema % inhibition: 0.0%
[1]; 50 mg/Kg per os, 72 h
  oedema % inhibition: 0.0%
[1]; [5]
  oedema % inhibition: 53.8%
[1]; [6]
  oedema % inhibition: 60.0%
[1]; [7]
  oedema % inhibition: 58.4%
[1]; [8]
  oedema % inhibition: 0.0%
[1]; [9]
  oedema % inhibition: 0.0%
[1]; [10]
  oedema % inhibition: 0.0%
[1]; 100 mg/Kg per os, 2 h
  oedema % inhibition: 50.8%
[1]; 100 mg/Kg per os, 4 h
  oedema % inhibition: 57.3%
[1]; 100 mg/Kg per os, 6 h
  oedema % inhibition: 54.8%
[1]; 100 mg/Kg per os, 24 h
  oedema % inhibition: 9.7%
[1]; 100 mg/Kg per os, 48 h
  oedema % inhibition: 7.8%
[1]; 100 mg/Kg per os, 72 h
  oedema % inhibition: 0.0%
[1]; [11]
  oedema % inhibition: 57.0%
[1]; [12]
  oedema % inhibition: 66.0%
[1]; [13]
  oedema % inhibition: 67.1%
[1]; [14]
  oedema % inhibition: 8.7%
[1]; [15]
  oedema % inhibition: 2.0%
[1]; [16]
  oedema % inhibition: 0.0%
[2]; 10 mg/Kg per os
  % Protection: 40.0%
[3]; 50 mg/Kg i.p., 3 h
  % difference in mucus secretion: +3%
[3]; 50 mg/Kg i.p., 6 h
  % difference in mucus secretion: +7%
[3]; 50 mg/Kg per os, 3 h
  % difference in mucus secretion: +5%
[3]; 50 mg/Kg per os, 6 h
  % difference in mucus secretion: +10%
[3]; 75 mg/Kg i.p., 3 h
  % difference in mucus secretion: +8%
[3]; 75 mg/Kg i.p., 6 h
  % difference in mucus secretion: +10%
[3]; 75 mg/Kg per os, 3 h
  % difference in mucus secretion: 0.0%
[3]; 75 mg/Kg per os, 6 h
  % difference in mucus secretion: +2%
[3]; 100 mg/Kg i.p., 3 h
  % difference in mucus secretion: +7%
[3]; 100 mg/Kg i.p., 6 h
  % difference in mucus secretion: 0.0%
[3]; 100 mg/Kg per os, 3 h
  % difference in mucus secretion: +5%
[3]; 100 mg/Kg per os, 6 h
  % difference in mucus secretion: 0.0%
[4]; 50 mg/Kg i.p.
  % inhibition, cough amplitude: 0%
  % inhibition, cough frequency: 0%
[4]; 50 mg/Kg per os
  % inhibition, cough amplitude: 0%
  % inhibition, cough frequency: 0%
[4]; 75 mg/Kg i.p.
  % inhibition, cough amplitude: 0%
  % inhibition, cough frequency: 10%
[4]; 75 mg/Kg per os
  % inhibition, cough amplitude: 7%
  % inhibition, cough frequency: 0%
[4]; 100 mg/Kg i.p.
  % inhibition, cough amplitude: 7%
  % inhibition, cough frequency: 10%
[4]; 100 mg/Kg per os
  % inhibition, cough amplitude: 5%
  % inhibition, cough frequency: 5%
